The source of these data is US9085559B2, “Triazine-aryl-bis-indoles and process for preparation thereof” (COUNCIL OF SCIENTIFIC & INDUSTRIAL RESEARCH, priority 2010, dated 2015).

In brackets after ≈: the same amount, converted by molar mass.

The subject of assay [1] is PDE-4. Put plainly: Phosphodiesterase 4 assay ([3H]cAMP SPA), enzyme preparation from rat heart. The assay is classed as biochemical. The following applies: PDE-4 activity, dose 10 μg/ml. The protocol:
FIG. 2. […] To examine whether IICT-TA67 inhibits PDE-4 activity in vitro, enzyme preparations were incubated in the absence or presence of different concentrations (1-20 μg/ml) of IICT-TA67 and breakdown of cAMP was monitored by β counter.
Table 1. Measurement of phosphodiesterase (PDE)-4 activity by compounds.
Heart was excised from anesthetized rat and transfer into normal saline solution. […] The homogenate was centrifuged at 500×g for 5 minute at 4° C. Then sup was taken for further centrifuged at 40,000×g for 30 minute (ultra centrifugation). After centrifugation supernatant was collected for phosphodiesterase assay. Protein concentration was estimated and for each assay, 2.5 μg protein (PDE enzyme preparation) was used.
Phosphodiesterase 4 assay: Phosphodiesterase 4 assay was conducted with [^3H] cAMP SPA enzyme assay (GE Amersham, UK) using 2.5 μg enzyme preparation for each well. Into each well 60 μl water, 10 μl assay buffer supplied with the kit, 10 μl compound (inhibitor), 10 μl PDE enzyme or homogenizing buffer (blank) and 10 μl radiolabel led cAMP ([^3H]cAMP, GE Amersham, UK) were added. To check activity of the enzyme without inhibitor 10 μl DMSO was added in place of inhibitor to a separate well. The reaction mixtures were incubated for 30 mi at 30° C. The reaction was stopped by adding 50 μl SPA bead supplied with the kit. It was then mixed well and allowed to stand at room temperature for 20 min. Breakdown of cAMP in each tube was monitored by β counter. The reading in each tube was obtained in counts per minute (CPM). The reading of the blank tube (without enzyme) was subtracted from each tube to normalize the counts. The enzyme activity was calculated by considering the CPM reading without any inhibitor (compound) as 100.

For assay [2], the system named is Intercellular Adhesion Molecule type 1 (ICAM-1). As to the kind of experiment: Cell-ELISA, TNF-α induced ICAM-1 expression on HUVECs. It is filed as cell-based. The following applies: Homo sapiens, HUVEC; HUVECs pretreated 2 hours, TNF-α 16 hours. The protocol:
FIG. 4. Inhibition of TNF-α induced expression Intercellular Adhesion Molecule type 1 (ICAM-1) and Vascular Cell Adhesion Molecule type 1 (VCAM-1) on HUVECs by IICT-TA67. To determine the effect of IICT-TA67 on TNF-α induced cell adhesion molecules such as ICAM-1 and VCAM-1, HUVECs were pretreated with various concentrations of IICT-TA67 for 2 hours followed by induction with TNF-α for 16 hours. The cell surface expression of cell adhesion molecules was measured by ELISA.
Cell-ELISA was used for measuring the expression of ICAM-1 on surface of endothelial cells. Endothelial cells were incubated with or without IICT-TA67 at desired concentrations for the required period, followed by treatment with TNF-α (10 ng/ml) for 16 h for ICAM-1 and VCAM-1 expression. The cells were fixed with 1.0% glutaraldehyde. Non-specific binding of antibody was blocked by using skimmed milk (3.0% in PBS). Cells were incubated overnight at 4° C. with anti-ICAM-1 mAb anti-VCAM-1 antibody, diluted in blocking buffer, the cells were further washed with PBS and incubated with peroxidase-conjugated goat anti-mouse secondary Abs. […] Reaction was stopped by the addition of 2 N sulfuric acid and absorbance at 490 nm was measured using microplate reader (Spectramax 190, Molecular Devices, USA).
A general note: ELISA stands for enzyme-linked immunosorbent assay.

The test system of assay [3] is adhesion of human neutrophils to the endothelial monolayer. Put plainly: Neutrophil adhesion assay on TNF-alpha induced HUVECs. It is filed as cell-based. Conditions: HUVEC, HUVECs pretreated 2 h, TNF-α 6 h, adhesion 1 h at 37° C. On the procedure: FIG. 5. IICT-TA67 inhibits the adhesion of Neutrophils on TNF-alpha induced HUVECs. To study whether the inhibition of Intercellular Adhesion Molecule type 1 (ICAM-1) and Vascular Cell Adhesion Molecule type 1(VCAM-1) functionally correlates with the inhibition of adhesion of neutrophils to the endothelial monolayer, neutrophil adhesion assay was performed. For this, HUVECs were pretreated with various concentrations of IICT-TA67 for 2 hours followed by induction with TNF-α for 6 hours. Human blood neutrophils were added onto the endothelial cells monolayer and allowed to adhere for one hour at 37° C. The number of cells that remained adhered to the monolayer was estimated by measuring the peroxidase activity.
Neutrophils were isolated from peripheral blood of healthy individuals. Blood was collected in heparin solution (20 U/ml) and erythrocytes were removed by sedimentation against 6% dextran solution. […] The number of cells were recorded to make a final concentration of 6×10^5 cells/ml.
The endothelial cells plated in 96-well culture plates were incubated with or without compound IICT-TA67 at desired concentrations for 2 h, followed by induction with TNF-α (10 ng/ml) for 6 h. […] The absorbance was read at 490 nm using an automated microplate reader (Model 680, Bio-Rad, USA).

Assay [4] concerns PDE-4. Put plainly: Phosphodiesterase 4 assay ([3H]cAMP SPA), enzyme preparation from rat heart. It is filed as biochemical. The following applies: 0.1-20 μg/ml, compared with rolipram (FIG. 2).

One may read the IC50 as the point on the concentration scale where inhibition reaches its midpoint. On to `COc1ccc(C(c2[nH]c3ccccc3c2CC(=O)O)c2[nH]c3ccccc3c2CC(=O)O)cc1Oc1nc(NC2CC2)nc(NC2CC2)n1` [Compound 7, 2,2′-[2,2′-3-(4,6-bis-cyclopropylamino)-1,3,5-triazin-2-yl-oxy-4-methoxy-phenyl]-methylene-bis-(1H-indole-3,3-diyl)-diacetic acid], for which the Inhibition % with PDE-4 [1] turned out to be 60%. Moreover, the IC50 in assay [2] is 10.6 µg/mL (≈ 15.7 µM); in assay [3], 12 µg/mL (≈ 17.8 µM). Further, the “inhibition of PDE4 activity” value in the assay with PDE-4 [4] is recorded as “inhibited PDE4 activity in a dose dependent manner”.
